Results from article PMC10700347, “Semisynthesis of 5-O-ester derivatives of renieramycin T and their cytotoxicity against non-small-cell lung cancer cell lines” (Scientific Reports, 2023).
Like-named read-outs stand apart in the source and are kept apart here.

How the values were obtained:
[1] = test system: H460 non-small-cell lung cancer cell line; assay: cells; assay type: cell-based; conditions: Homo sapiens, NCI-H460, H460, MTT
Procedure: (§1) The in vitro cytotoxicity of all the semisynthesized esters and their precursors against H292 and H460 human NSCLC cell lines was analyzed based on the mitochondrial dehydrogenase activity via the MTT assay[43] (Table 1). The compounds were tested at doses of 1–250 nM. Cisplatin and doxorubicin, which are the standard chemotherapeutic drugs for the treatment of NSCLC, were used as positive controls. […] However, the extended use of 1 is limited by the concerns for unwanted necrosis, which is an unprogrammed form of cell death caused by the presence of two quinone moieties. […] The IC50 values of the 5-O-ester derivatives 3a, 3b, 3d, 3h, 3i, and 3k were in the same range as the mother compound 1.
(§2) The in vitro cytotoxicity of compounds 3a–3o, 4a, and 4b was determined against the H292 and H460 NSCLC cell lines by the MTT colorimetric assay. Each compound was dissolved in DMSO to prepare a 10 mM stock solution. Both the H292 and H460 cells were cultured in RPMI 1640 medium supplemented with 2 mM L-glutamine, 10% FBS, and 100 units/mL of penicillin–streptomycin at 37 °C under 5% CO2. The NSCLC cells were trypsinized and seeded with a density of 5 × 10^3 cells/well in a 96-well plate, followed by overnight incubation. Serial dilutions of the test compounds ranging from 1 to 250 nM were prepared in the presence of DMSO (< 0.2% v/v). […] After incubation, formazan crystals were solubilized by adding 100 µL of DMSO, and their absorbance was measured at 570 nm by a spectrophotometric microtiter plate reader (PerkinElmer Victor 3 1420 Multilabel Plate Counter). Cell viability was calculated as the percentage of nontreated control cells. The mean IC50 values were obtained from three independent experiments. Each experiment was conducted in triplicate with at least five concentrations of the tested compounds. The GraphPad Prism software (version 5) was used to calculate the average IC50 and standard deviation (S.D.) values for each experiment. Cisplatin and doxorubicin were used as the positive controls, while 0.2% DMSO served as the negative control.

[2] = test system: H292 non-small-cell lung cancer cell line; assay: cells; assay type: cell-based; conditions: Homo sapiens, NCI-H292, H292, MTT
Procedure: as §1, §2

[3] = test system: non-tumorigenic bronchial epithelial (BEAS-2B) cell line; assay: MTT cell viability on normal cell line BEAS-2B; assay type: cell-based; conditions: Homo sapiens, BEAS-2B normal cell line, 24 h, read-out: IC50 ± S.D. BEAS-2B
Procedure: (§3) DP and BEAS-2B were seeded into 96-well plates at densities of 1 × 10^4 cells per well, while HaCaT cells were seeded at densities of 5 × 10^3 cells per well. The cells were allowed to adhere for 24 h. Subsequently, the cells were treated with various concentrations of compounds 3a–3o, 4a, and 4b at 72 h for DP cells and at 24 h for HaCaT and BEAS-2B cells. After the treatment period, cells were incubated with 0.5 mg/ml of MTT for 2 h. The resulting MTT product was measured at 570 nm using a spectrophotometric microplate reader. Cell viability was calculated by comparing the optical density (OD) measurements to those of the untreated control, and the results were expressed as a percentage.

[4] = test system: human keratinocyte (HaCaT) cell line; assay: MTT cell viability on normal cell line HaCaT; assay type: cell-based; conditions: Homo sapiens, 24 h, read-out: IC50 ± S.D. HaCaT
Procedure: as §3

[5] = test system: dermal papilla (DP) cell line; assay: MTT cell viability on normal cell line DP; assay type: cell-based; conditions: 72 h
Procedure: as §3

H460 NSCLC cells [6] = assay: Annexin V-FITC/PI double staining flow cytometry, H460; assay type: cell-based, human; conditions: H460, 7 h; statement for 1 at 20 µM
Procedure: (§4) Apoptosis cell death was investigated following the manufacturer's protocol (ImmunoTools, Friesoythe, Germany) using FITC–labeled Annexin V/PI. Treated cells was cultured overnight in 24-well plates at a density of 5 × 10^4 cells/well. Subsequently, cells were treated with various concentrations of 1, and 3b (0, 0.1, 1, 5, 10, and 20 µM) for 7 h. After treatment, cells were collected, washed with cold PBS, and then suspended in binding buffer. Each cell suspension was stained with 2.5 µL of annexin V-FITC and 1 µL of PI. The mixture was vortexed, then incubated for 15 min at room temperature. Guava easyCyte flow cytometer (EMD Millipore, Hayward, CA, USA) was utilized to detect live, apoptotic, and necrotic cells. The modes of cell death were classified as necrotic (PI+), and apoptotic cell death, divided into early apoptotic (PI (-) Annexin-V (+)) and late apoptotic (PI (+) Annexin-V (+)).

H292 NSCLC cells [7] = assay: Hoechst 33342/PI nuclear co-staining apoptosis and accidental necrosis assay, H292; assay type: cell-based, human; conditions: cisplatin-resistant H292, 7 h, 0–20 µM; statement for 1 at the highest concentration (20 µM)
Procedure: (§5) The anti-proliferative activity of compounds 1 and 3b against H292 and H460 cells were assessed across a range of concentrations (0–20 µM) under treatment at 10 and 24 h. […] The cytotoxic effect of 3b was closely resembled that of the parental compound 1 after 24 h treatment. According to their cytotoxic profiles at short treatment duration, the NSCLC cell lines were treated with various concentrations (0, 0.1, 1, 5, 10, and 20 µM) of compounds 1 and 3b, followed by Hoechst 33342 and PI staining to visualize morphological changes by fluorescence microscopy (Fig. 4C–F). The bright blue fluorescence of Hoechst 33342 indicated apoptosis, characterized by DNA condensation and fragmentation. In contrast, the red fluorescence emitted by propidium iodide (PI) indicated necrotic cell death. The percentage of apoptotic and necrotic cells was calculated based on the stained image.
(§6) NSCLC cells (H292 and H460) were seeded into a 96-well plate at a density of 1 × 10^4 cells/well for 24 h. Subsequently, the cells were treated with several concentrations of compounds 1 and 3b (0–20 µM) for 7 h. […] Visualization and imaging of the stained cells were carried out using a fluorescence microscope (Nikon ECLIPSE Ts2, Tokyo, Japan). […] The percentage of cell death was analyzed and reported.

H460 NSCLC cells [8] = assay: Hoechst 33342/PI nuclear co-staining apoptosis and accidental necrosis assay, H460; assay type: cell-based, human; conditions: cisplatin-sensitive H460, 7 h, 0–20 µM
Procedure: as §5, §6

H292 NSCLC cells [9] = assay: Annexin V-FITC/PI double staining flow cytometry, H292; assay type: cell-based, human; conditions: H292, 7 h; statement for 1 at 20 µM
Procedure: as §4

[10] = 10 h, 0–20 µM, read-out: IC50 ± S.D. H460 10 h
[11] = 24 h, 0–20 µM, read-out: IC50 ± S.D. H460 24 h
[12] = 72 h, read-out: IC50 ± S.D. H460
[13] = 10 h, 0–20 µM, read-out: IC50 ± S.D. H292 10 h
[14] = 24 h, 0–20 µM, read-out: IC50 ± S.D. H292 24 h
[15] = 72 h, read-out: IC50 ± S.D. H292

Compound	IC50 [1, 10] [nM]	IC50 [1, 11] [nM]	IC50 [1, 12] [nM]	IC50 [2, 13] [nM]	IC50 [2, 14] [nM]	IC50 [2, 15] [nM]	IC50 [3] [nM]	IC50 [4] [nM]	IC50 [5] [nM]	Mode of cell death by annexin V-FITC/PI flow cytometric analysis (H460 NSCLC cells [6])	Mode of cell death (apoptosis / accidental necrosis) by Hoechst 33342/PI staining (H292 NSCLC cells [7])	Mode of cell death (apoptosis / accidental necrosis) by Hoechst 33342/PI staining (H460 NSCLC cells [8])	Mode of cell death by annexin V-FITC/PI flow cytometric analysis (H292 NSCLC cells [9])
C/C=C(/C)C(=O)OC[C@H]1C2=C(C[C@H]3[C@H]4C5=C(C[C@@H]([C@H](C#N)N13)N4C)C(=O)C(C)=C(OC)C5=O)C(=O)C(C)=C(OC)C2=O [Compound 1, Renieramycin M]	12000 ± 2730	4130 ± 1000	35.6 ± 1.82	4920 ± 3140	3240 ± 800	34.4 ± 1.7	75 ± 9.77	8.01 ± 0.53	7.07 ± 1.5	necrotic cell death in both H292 and H460 cell lines in conjugation with late apoptosis	induced both apoptosis and accidental necrosis	unwanted necrosis was observed in a dosed-dependent manner	necrotic cell death in both H292 and H460 cell lines in conjugation with late apoptosis
C/C=C(/C)C(=O)OC[C@H]1c2c(c(OC(=O)CC)c(C)c3c2OCO3)C[C@H]2[C@H]3C4=C(C[C@@H]([C@H](C#N)N12)N3C)C(=O)C(C)=C(OC)C4=O [Compound 3b, 5-O-(3-propanoyl) ester of renieramycin T]	18800 ± 400	7320 ± 520	33.9 ± 1.95	17600 ± 6580	4140 ± 840	33.4 ± 0.87	90.2 ± 9.49	33.7 ± 9.43	23.6 ± 0.65	early apoptosis with minimal necrosis	morphological apoptosis with no detectable necrotic cells	induced apoptosis with minimal necrosis	early apoptosis with minimal necrosis
